Test results as given in PubChem BioAssay AID256 (DTP/NCI, 2004).
Toxic doses and inconclusive results are not listed. The calls were made as follows: active = survival T/C of 150% or more; inactive = T/C below 125% in these data.

Test system: CD2F1 mice, L1210 leukemia ip, survival T/C
Assay: NCI In Vivo Anticancer Drug Screen. Data for tumor model L1210 Leukemia (intraperitoneal) in CD2F1 (CDF1) mice
Details: endpoint: mean survival time, higher = longer survival
Outline: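 Antitumor effect is scored in animals hosting a serially transplanted tumor. Values compare compound-dosed animals against vehicle-only controls as a simple quotient.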

[1] = dose: 100.0 mg/kg/injection, schedule: Q04DX003 (ip), vehicle: Klucel (hydroxypropylcellulose) (HPC)
[2] = dose: 200.0 mg/kg/injection, schedule: Q04DX003 (ip), vehicle: Klucel (hydroxypropylcellulose) (HPC)
[3] = dose: 400.0 mg/kg/injection, schedule: Q04DX003 (ip), vehicle: Klucel (hydroxypropylcellulose) (HPC)
[4] = dose: 50.0 mg/kg/injection, schedule: Q01DX009 (ip), vehicle: saline sonified
[5] = dose: 100.0 mg/kg/injection, schedule: Q04DX003 (ip), vehicle: saline with Tween-80
[6] = dose: 200.0 mg/kg/injection, schedule: Q04DX003 (ip), vehicle: saline with Tween-80
[7] = dose: 100.0 mg/kg/injection, schedule: Q01DX009 (ip), vehicle: saline with Tween-80
[8] = dose: 200.0 mg/kg/injection, schedule: Q01DX009 (ip), vehicle: saline with Tween-80

Measured: T/C

CC(C)NC(=O)CCCN(C(=O)OCc1ccccc1)N(C)C(=O)OCc1ccccc1
inactive: dose: 25.0 mg/kg/injection, schedule: Q04DX003 (ip), vehicle: Klucel (hydroxypropylcellulose) (HPC) 94 % of control | dose: 50.0 mg/kg/injection, schedule: Q04DX003 (ip), vehicle: Klucel (hydroxypropylcellulose) (HPC) 91 % of control | [1] 103 % of control | [2] 91 % of control | [3] 95 % of control

CCCCCCCC(=O)N/N=C(\CO)[C@]1(O)Cc2c(O)c3c(c(O)c2[C@@H](OC2CC(N)C(O)C(C)O2)C1)C(=O)c1c(OC)cccc1C3=O (stereo partly specified)
inactive: dose: 1.5 mg/kg/injection, schedule: Q01DX009 (ip), vehicle: saline 124 % of control | dose: 3.0 mg/kg/injection, schedule: Q01DX009 (ip), vehicle: saline 122 % of control | dose: 6.0 mg/kg/injection, schedule: Q01DX009 (ip), vehicle: saline 122 % of control | dose: 12.0 mg/kg/injection, schedule: Q01DX009 (ip), vehicle: suspension in saline 118 % of control
active: dose: 48.0 mg/kg/injection, schedule: Q01DX009 (ip), vehicle: suspension in saline 162 % of control

CC1(C)C2CC=C(CCN=[N+]=[N-])C1C2 (stereo unspecified)
inactive: [4] 97 % of control | dose: 100.0 mg/kg/injection, schedule: Q01DX009 (ip), vehicle: saline sonified 97 % of control | [5] 105 % of control | dose: 200.0 mg/kg/injection, schedule: Q01DX009 (ip), vehicle: saline sonified 95 % of control | [6] 97 % of control

O=C1CCCC(=O)N1CCCCCCN1C(=O)CCCC1=O
inactive: [7] 94 % of control | [5] 100 % of control | [8] 108 % of control | [6] 101 % of control | dose: 400.0 mg/kg/injection, schedule: Q04DX003 (ip), vehicle: saline with Tween-80 101 % of control

C[n+]1ccccc1C#N
inactive: dose: 25.0 mg/kg/injection, schedule: Q01DX009 (ip), vehicle: saline sonified 102 % of control | [4] 102 % of control | [5] 95 % of control

CC(C)(C)[Si](OP(N)(=O)N(CCCl)CCCl)(c1ccccc1)c1ccccc1 (stereo unspecified)
inactive: dose: 15.6 mg/kg/injection, schedule: Q01DX001 (ip), vehicle: distilled water + Tween-80 102 % of control | dose: 31.3 mg/kg/injection, schedule: Q01DX001 (ip), vehicle: distilled water + Tween-80 110 % of control | dose: 62.5 mg/kg/injection, schedule: Q01DX001 (ip), vehicle: distilled water + Tween-80 110 % of control | dose: 125.0 mg/kg/injection, schedule: Q01DX001 (ip), vehicle: distilled water + Tween-80 122 % of control | dose: 250.0 mg/kg/injection, schedule: Q01DX001 (ip), vehicle: distilled water + Tween-80 111 % of control | dose: 500.0 mg/kg/injection, schedule: Q01DX001 (ip), vehicle: distilled water + Tween-80 117 % of control

COc1cc(C2CNCc3cc(O)c(OC)cc32)ccc1O (stereo unspecified)
inactive: dose: 75.0 mg/kg/injection, schedule: Q01DX001 (ip), vehicle: saline 106 % of control | dose: 150.0 mg/kg/injection, schedule: Q01DX001 (ip), vehicle: saline 102 % of control

Brc1nc(-c2ccccc2)cc(-c2ccccc2)c1-c1ccccc1
inactive: dose: 100.0 mg/kg/injection, schedule: Q04DX002 (ip), vehicle: saline with Tween-80 90 % of control | dose: 200.0 mg/kg/injection, schedule: Q04DX002 (ip), vehicle: saline with Tween-80 90 % of control | dose: 400.0 mg/kg/injection, schedule: Q04DX002 (ip), vehicle: saline with Tween-80 97 % of control

C=C(c1cn(C(C)=O)c2ccccc12)c1cn(C(C)=O)c2ccccc12
inactive: [7] 95 % of control | [8] 96 % of control | dose: 400.0 mg/kg/injection, schedule: Q01DX009 (ip), vehicle: saline with Tween-80 98 % of control

CC(CCC(=O)c1ccccc1)c1ccc2ccccc2c1 (stereo unspecified)
inactive: dose: 100.0 mg/kg/injection, schedule: Q01DX009 (ip), vehicle: Klucel (hydroxypropylcellulose) (HPC) 92 % of control | [1] 106 % of control | dose: 200.0 mg/kg/injection, schedule: Q01DX009 (ip), vehicle: Klucel (hydroxypropylcellulose) (HPC) 100 % of control | [2] 104 % of control | dose: 400.0 mg/kg/injection, schedule: Q01DX009 (ip), vehicle: Klucel (hydroxypropylcellulose) (HPC) 96 % of control | [3] 97 % of control

CCOC(=O)C1(C2=NC(C)(C)CC(C)O2)CCCCC1 (stereo unspecified)
inactive: dose: 100.0 mg/kg/injection, schedule: Q04DX003 (ip), vehicle: acetone 96 % of control | dose: 200.0 mg/kg/injection, schedule: Q04DX003 (ip), vehicle: acetone 90 % of control | dose: 400.0 mg/kg/injection, schedule: Q04DX003 (ip), vehicle: acetone 105 % of control

C=COCCN1CCN(CCCN2c3ccccc3Sc3ccc(C(F)(F)F)cc32)CC1
inactive: dose: 12.5 mg/kg/injection, schedule: Q04DX003 (ip), vehicle: saline with Tween-80 113 % of control | dose: 25.0 mg/kg/injection, schedule: Q04DX003 (ip), vehicle: saline with Tween-80 113 % of control

CCOC(=O)/C(C#N)=C\c1cc(OC)ccc1OC
inactive: dose: 25.0 mg/kg/injection, schedule: Q01DX009 (ip), vehicle: saline with Tween-80 102 % of control | dose: 50.0 mg/kg/injection, schedule: Q01DX009 (ip), vehicle: saline with Tween-80 94 % of control | [7] 104 % of control
